Assay results as given in patent US10479793B2, “Imidazopyridazine compounds useful as modulators of IL-12, IL-23 and/or IFN alpha responses” (BRISTOL-MYERS SQUIBB COMPANY, priority 2015, dated 2019).
Where two headings read alike, the source gives them in different places.

Experiments:
[1] = molecular target: T1, recombinantly expressed His-tagged protein corresponding to amino acids 575-869 of human Tyk2 (Homo sapiens, UniProt P29597); experiment: Probe displacement assay (scintillation proximity, tritiated probe); format: binding; settings: His-tagged Tyk2 (575-869) 2.5 nM, 40 nM radiolabeled probe, 30 minutes at room temperature
T1 construct: made in house
T1 sequence (P29597 with tags, fused parts or gaps): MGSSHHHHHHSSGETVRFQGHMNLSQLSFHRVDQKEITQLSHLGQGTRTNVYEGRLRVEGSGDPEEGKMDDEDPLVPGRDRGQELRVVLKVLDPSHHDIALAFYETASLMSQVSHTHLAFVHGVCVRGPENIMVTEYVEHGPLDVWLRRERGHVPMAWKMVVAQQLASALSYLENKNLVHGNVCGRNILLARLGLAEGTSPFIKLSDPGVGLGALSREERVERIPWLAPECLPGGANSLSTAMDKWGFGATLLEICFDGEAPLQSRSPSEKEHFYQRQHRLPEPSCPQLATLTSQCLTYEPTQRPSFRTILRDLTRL
Protocol: The preparation of radiolabeled probe, (R)—N-(1-(3-(8-methyl-5-(methylamino)-8H-imidazo[4,5-d]thiazolo[5,4-b]pyridin-2-yl)phenyl)ethyl)-2-([^3H]methylsulfonyl)benzamide, was performed as described below: […]

[2] = test system: IL-23 stimulated Kit225 T cells with a stably-integrated STAT-dependent luciferase reporter; experiment: Kit225 T cell assay, IL-23 stimulated STAT-dependent luciferase reporter; format: cell-based, human
Protocol: (§1) Kit225 T cells with a stably-integrated STAT-dependent luciferase reporter were plated in RPMI (GIBCO) containing 10% heat-inactivated FBS (GIBCO) and 100 U/mL PenStrep (GIBCO). The cells were then stimulated with either 20 ng/mL human recombinant IL-23 or 200 U/mL human recombinant IFNα (PBL InterferonSource) for 5-6 hours. Luciferase expression was measured using the STEADY-GLO Luciferase Assay System (PROMEGA) according to the manufacturer's instructions.

[3] = test system: IFNα stimulated Kit225 T cells with a stably-integrated STAT-dependent luciferase reporter; experiment: Kit225 T cell assay, IFNα stimulated STAT-dependent luciferase reporter; format: cell-based, human
Protocol: as §1

[4] = KIT225, 20 ng/mL human recombinant IL-23, 5-6 hours, luciferase, read-out: IL-23 Kit225 Reporter, (IC50)
[5] = KIT225, 200 U/mL human recombinant IFNα, 5-6 hours, luciferase, read-out: IFNa Kit225 Reporter, (IC50)
[6] = Homo sapiens, KIT225, 20 ng/mL human recombinant IL-23, 5-6 hours, luciferase, read-out: IL-23 Kit225 Reporter, (IC50)
[7] = Homo sapiens, KIT225, 200 U/mL human recombinant IFNα, 5-6 hours, luciferase, read-out: IFNa Kit225 Reporter, (IC50)

Row | EC50 [1] [nM] | IC50 [2, 4] [µM] | IC50 [3, 5] [µM] | IC50 [2, 6] [µM] | IC50 [3, 7] [µM] | Compound | IC50 ([2]; Homo sapiens, KIT225, read-out: IL-23 Kit225 Reporter, (IC50, uM)) [µM] | IC50 ([3]; Homo sapiens, KIT225, read-out: IFNa Kit225 Reporter, (IC50, uM)) [µM]
1 | 2.09 | – | – | 0.1 | 0.05 | CNc1cc(Nc2c(OC)ccc(F)c2F)nn2c(C(=O)NC3CC3)cnc12 [Example 75] | – | –
2 | 50 | – | – | 3.55 | 2.79 | CNc1cc(N(C)c2ccccc2)nn2c(C(=O)NC3CC3)cnc12 [Example 76] | – | –
3 | 4.02 | – | – | 0.03 | 0.01 | CNc1cc(Nc2ccccc2OC)nn2c(C(=O)NC3CC3)cnc12 [Example 77] | – | –
4 | 8.17 | 0.18 | 0.07 | – | – | CNc1cc(N2CCc3ccccc32)nn2c(C(=O)NC3CC3)cnc12 [Example 78] | – | –
5 | 6.95 | – | – | 0.07 | 0.05 | CNc1cc(Nc2cc(F)cc(F)c2OC)nn2c(C(=O)NC3CC3)cnc12 [Example 79] | – | –
6 | 4.83 | 0.15 | 0.12 | – | – | CNc1cc(Nc2ccccc2OC)nn2c(C(=O)NCC(C)(C)O)cnc12 [Example 80] | – | –
7 | 9.31 | 0.04 | 0.03 | – | – | CNc1cc(Nc2cccc(-n3cccn3)n2)nn2c(C(=O)NC3CC3)cnc12 [Example 85] | – | –
8 | 20 | – | – | 0.29 | 0.3 | CNc1cc(Nc2cccc(-c3ccccc3)n2)nn2c(C(=O)NC3CC3)cnc12 [Example 86] | – | –
9 | 30 | – | – | 0.4 | 0.21 | CNc1cc(Nc2cccnc2-n2cccn2)nn2c(C(=O)NC3CC3)cnc12 [Example 92] | – | –
10 | 10 | – | – | 1.1 | 0.41 | CNc1cc(Nc2cncc(OC)c2)nn2c(C(=O)NC3CC3)cnc12 [Example 93] | – | –
11 | 1.37 | – | – | 0.02 | 0.03 | CNc1cc(Nc2cccnc2OC)nn2c(C(=O)NC3CC3)cnc12 [Example 94] | – | –
12 | 20 | – | – | 0.37 | 0.27 | CNc1cc(Nc2cccnc2F)nn2c(C(=O)NC3CC3)cnc12 [Example 95] | – | –
13 | 7.18 | – | – | 0.51 | 0.6 | CNc1cc(Nc2cncc(C)c2)nn2c(C(=O)NC3CC3)cnc12 [Example 96] | – | –
14 | 30 | – | – | 0.42 | 0.65 | CNc1cc(Nc2cccnc2C)nn2c(C(=O)NC3CC3)cnc12 [Example 97] | – | –
15 | 270 | – | – | 7.19 | 5.79 | CNc1cc(Nc2cccnc2-n2ccc(C)n2)nn2c(C(=O)NC3CC3)cnc12 [Example 101] | – | –

Continued, compound first:

Row | Compound | EC50 [1] [nM] | IC50 [2, 4] [µM] | IC50 [3, 5] [µM] | IC50 [2, 6] [µM] | IC50 [3, 7] [µM] | IC50 ([2]; Homo sapiens, KIT225, read-out: IL-23 Kit225 Reporter, (IC50, uM)) [µM] | IC50 ([3]; Homo sapiens, KIT225, read-out: IFNa Kit225 Reporter, (IC50, uM)) [µM]
16 | CNc1nc(Nc2cc(C)cc(C)c2)nn2c(C(N)=O)cnc12 [Example 69] | 5.44 | 0.42 | 0.15 | – | – | – | –
17 | Cc1cc(C)cc(Nc2nc(NC3CC3)c3ncc(C(N)=O)n3n2)c1 [Example 70] | 80 | 11.2 | 12.5 | – | – | – | –
18 | Cc1cc(F)cc(Nc2nc(NC3CC3)c3ncc(C(N)=O)n3n2)c1 [Example 71] | 140 | 2.97 | 12.5 | – | – | – | –
19 | CNc1nc(Nc2cc(C)cc(F)c2)nn2c(C(N)=O)cnc12 [Example 73] | 7.75 | 0.28 | 0.14 | – | – | – | –
20 | CNc1nc(Nc2ccccc2OC)nn2c(C(N)=O)cnc12 [Example 74] | 10 | 0.3 | 0.2 | – | – | – | –
21 | CNc1cc(Nc2cc(F)cc(F)c2OC)nn2c(C(=O)NCC(C)(C)O)cnc12 [Example 81] | 7.26 | 0.27 | 0.23 | – | – | – | –
22 | CNc1cc(Nc2cccc3c2OCCO3)nn2c(C(=O)NCC(C)(C)O)cnc12 [Example 82] | 10 | 0.18 | 0.09 | – | – | – | –
23 | CNc1cc(Nc2cc(F)cc(F)c2OC)nn2c(C(N)=O)cnc12 [Example 83] | 5.76 | 0.17 | 0.06 | – | – | – | –
24 | CNc1cc(Nc2cccc(N3CCOC3=O)n2)nn2c(C(=O)NC3CC3)cnc12 [Example 87] | 4.31 | 0.09 | 0.06 | – | – | – | –
25 | CNc1cc(Nc2cccc(N3CCCC3=O)n2)nn2c(C(=O)NC3CC3)cnc12 [Example 88] | 8.34 | 0.01 | 0.02 | – | – | – | –
26 | CNc1cc(Nc2cccc(-n3ccc(C(F)(F)F)n3)n2)nn2c(C(=O)NC3CC3)cnc12 [Example 89] | 10 | 0.39 | 0.44 | – | – | – | –
27 | CNc1cc(Nc2cccc(N3CCC(O)C3=O)n2)nn2c(C(=O)NC3CC3)cnc12 (stereo not drawn) [Example 90] | 3.9 | 0.7 | 0.14 | – | – | – | –
28 | CNc1cc(Nc2cccnc2-n2nc(C)cc2C(F)(F)F)nn2c(C(=O)NC3CC3)cnc12 [Example 100] | 140 | 12.5 | 12.5 | – | – | – | –
29 | CCNC(=O)c1ncccc1Nc1cc(NC)c2ncc(C(=O)NC3CC3)n2n1 [Example 103] | 160 | – | – | – | – | 0.47 | 0.36
30 | O=C(NC1CC1)c1cnc2c(NCCN3CCOCC3)cc(Nc3cccc4c3OCCO4)nn12 [Example 110] | 7.52 | 0.16 | 0.12 | – | – | – | –
31 | CNc1cc(Nc2cccc(-c3ccc(C(F)(F)F)cc3F)c2)nn2c(C(=O)NC3CC3)cnc12 [Example 116] | 65.5 | 1.1 | 1.2 | – | – | – | –
